Data as given in US20260258025A1, “INHIBITORS OF TDP-43 AND TAU AGGREGATION” (Aquinnah Pharmaceuticals, inc., priority 2023, published 2026).
Where a SMILES comes first, the peptide text is derived from it. The star is where a group is joined. Cbz = O=C(OCc1ccccc1)*

Tests used:
Type in all cases: cell-based
[1] = test system: TDP-43 nuclear localization; experiment: TDP-43 localization analysis by immunofluorescence in MG-132 challenged iP11NA human motor neurons; settings: 1 μM MG-132 for 20 hours, human motor neurons, vs unstressed
Experimental: (§1) Cell culture and differentiation of iPS Cells into motor neurons. Pluripotent stem cells were grown with mTeSR Plus medium on tissue culture dishes coated with Matrigel, and maintained in 5% CO2 incubators at 37° C. Stem cells were passaged as small aggregates of cells after 1 mM EDTA treatment. […] was added to the cultures for 16-24 h after dissociation to prevent cell death. The iP11NA iPS cell line was acquired from ALSTEM. This cell line was generated from pre-made footprint-free human iPS cells with DOX inducible Ngn2 that has been stably integrated into the human AAVS1 “Safe Harbor” site, and provides a convenient means to differentiate human iPS cells into neurons rapidly and efficiently. Motor neuron differentiation was achieved using a modified 5-day strategy.
This approach relies on neural induction through small molecule inhibition of SMAD signaling, accelerated neural differentiation through forced Ngn2 expression, and motor neuron patterning through the activation of retinoic acid and Sonic Hedgehog signaling pathways. In brief, pluripotent stem cells were dissociated to single cells using accutase and plated at a density of 80,000 cells per cm^2 on Matrigel-coated culture plates with mTeSR Plus medium supplemented with ROCK inhibitor (10 μM Y-27632, ATCC). When cells reached 50% confluency, medium was changed to differentiation medium BrainPhys medium supplemented with N2-A, SM1, […]. This time point was defined as day 0 (d0) of motor neuron differentiation. Treatment with small molecules was carried out as follows: 2 μg/mL Doxycyline, 10 μM SB431542, 100 nM LDN-193189, […] and 1 μM Smoothend agonist and 10 uM Edu. […]
A dose-responsive effect was further tested for Compound 183 using quantitative imaging analysis on the CellInsight™ CX7 High Content Analysis Platform. By comparing the intensity of TDP-43 staining in the nucleus and cytoplasm of human motor neurons, we determined Compound 183 could maintain nuclear TDP-43 from 370 nM-10 μM in the proteasome challenged motor neurons (see FIG. 2).

insoluble TDP-43 = experiment: Cell fractionation and immunoblot of TDP-43 in MG-132 challenged human motor neurons; settings: MG-132 1 μM, vs unstressed
Experimental: Cell culture and differentiation of iPS Cells into motor neurons. Pluripotent stem cells were grown with mTeSR Plus medium on tissue culture dishes coated with Matrigel, and maintained in 5% CO2 incubators at 37° C. Stem cells were passaged as small aggregates of cells after 1 mM EDTA treatment. […] was added to the cultures for 16-24 h after dissociation to prevent cell death. The iP11NA iPS cell line was acquired from ALSTEM. This cell line was generated from pre-made footprint-free human iPS cells with DOX inducible Ngn2 that has been stably integrated into the human AAVS1 “Safe Harbor” site, and provides a convenient means to differentiate human iPS cells into neurons rapidly and efficiently. Motor neuron differentiation was achieved using a modified 5-day strategy. […]
For analysis of TDP-43 cellular distribution, d14 motor neurons were lysed with Thermo Subcellular Protein Fractionation Kit for cultured cells and processed according to the manufacturer's instructions. […] Fluorescent secondary antibodies were used for band detection and the Kaleidoscope precision plus protein ladder for size estimation. iBright FL1500 imaging system and software were used to quantitate protein band signal. […]

TDP-43 splicing function = experiment: qRT-PCR of TDP-43 sentinel transcripts (STMN2, ELAVL3, PFKP) in MG-132 challenged human motor neurons; set-up: effect of stressor on splicing changes associated with TDP-43 loss of function (qPCR): dose or concentration left out as unconfirmed; settings: human motor neurons, relative to unstressed
Experimental: as §1
This approach relies on neural induction through small molecule inhibition of SMAD signaling, accelerated neural differentiation through forced Ngn2 expression, and motor neuron patterning through the activation of retinoic acid and Sonic Hedgehog signaling pathways. In brief, pluripotent stem cells were dissociated to single cells using accutase and plated at a density of 80,000 cells per cm^2 on Matrigel-coated culture plates with mTeSR Plus medium supplemented with ROCK inhibitor (10 μM Y-27632, ATCC). When cells reached 50% confluency, medium was changed to differentiation medium BrainPhys medium supplemented with N2-A, SM1, […]. This time point was defined as day 0 (d0) of motor neuron differentiation. Treatment with small molecules was carried out as follows: 2 μg/mL Doxycyline, 10 μM SB431542, 100 nM LDN-193189, […] and 1 μM Smoothend agonist and 10 uM Edu. The full list of materials and their descriptions is included below in Table 5.
Total RNA was isolated from d14 motor neurons for qRT-PCR assays using TaqMan™ Fast Advanced Cells-to-CT™ Kit according to manufacturer's instructions. 7500 neurons per well of 96-well culture were routinely used for processing. qRT-PCR was then performed using multiplex assays from IDT using PrimeTime™ Gene Expression Master Mix (IDT) on a QuantStudio6Pro system. Quantitative levels for all genes assayed were normalized using GAPDH expression. […] Primers and probes used in this study are in Table 5.
To this end, we first examined whether proteasome inhibition, which triggers TDP-43 nuclear depletion, also leads to splicing defects associated with TDP-43 loss-of function. For comparison, we also treated human motor neurons with puromycin, which recruits TDP-43 to stress granules in the cytoplasm. We chose to analyze several transcripts that have relevant connections to ALS biology including STMN26,12, PFKP19, and ELAVL320,21. We used quantitative reverse transcription-polymerase chain reaction (qRT-PCR) to validate that in MG-132-treated motor neurons these transcripts were altered like in ALS patients.
Using this method, we next obtained RNA from independent motor neuron biological replicates after proteasome inhibition and Compound 183 treatment to determined by qRT-PCR the relative abundance of these transcripts. […] A dose-responsive effect was further tested for Compound 183 using qRT-PCR in this model. […] Collectively, the data support the notion that Compound 183 promotes TDP-43 nuclear function under proteotoxic stress.

| Structure (SMILES) | effect of stressor on nuclear TDP-43 staining (immunofluorescence) [1] | effect of stressor on TDP-43 distribution between fractions (immunoblot) (insoluble TDP-43) | effect of stressor on cryptic splicing of STMN2, ELAVL3, PFKP (qPCR) (TDP-43 splicing function; MG-132 1 μM) | effect of stressor on normal transcript levels (qPCR) (TDP-43 splicing function; MG-132 1 μM) | effect of stressor on splicing changes associated with TDP-43 loss of function (qPCR) (TDP-43 splicing function) |
| --- | --- | --- | --- | --- | --- |
| CC(C)C[C@@H](C=O)NC(=O)[C@H](CC(C)C)NC(=O)[C@H](CC(C)C)NC(=O)OCc1ccccc1 [MG-132, reference compound] (Cbz-Leu-Leu-Leu-aldehyde) | induced a loss of nuclear TDP-43 staining | significant change in TDP-43 distribution from the soluble, nuclear compartment to the insoluble fraction | strong induction of cryptic splicing | decreased levels for normal STMN2 as well as the cryptic exon-disrupted splice junctions in PFKP and ELAVL3 | – |
| COc1ccc(C[C@H](N)C(=O)N[C@H]2[C@@H](O)[C@H](n3cnc4c(N(C)C)ncnc43)O[C@@H]2CO)cc1 [puromycin, reference compound] | – | – | – | – | failed to induce transcription changes consistent with TDP-43 loss of function |
